The source of these data is US10577363B2, “Substituted piperidine compounds” (EPIZYME, INC., priority 2014, dated 2020).

Assay [1] deals with T1, SMYD3 (Homo sapiens (Human), UniProt Q9H7B4). The experiment in a line: SMYD3 biochemical assay (SPA, 3H-SAM methylation of MEKK2 protein substrate). The conditions noted are these: average of n = 1 to n = 50; read-out: SMYD3 Biochem IC50. Summed up:
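Full-length native human SMYD3 (E. coli-expressed, tags removed) preincubated with compounds 30 min at room temperature, then reaction started with 3H-SAM and GST-tagged MEKK2 protein in 25 mM Tris-Cl pH 8.0, 1 mM TCEP, 0.005% BSG, 0.005% Tween 20. Quenched with unlabelled SAM (100 uM final); 3H-MEKK2 counted by SPA.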

In assay [2] the target is T1, SMYD3. Kind of assay: SMYD3 cell assay (Trimethyl-MEKK2 In-Cell Western in 293T/17 cells). In kind it is cell-based. The conditions noted are these: average of n = 1 to n = 50; read-out: SMYD3 Cell IC50. Summed up:
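In-Cell Western ratio of trimethyl-Lys260 MEKK2 to anti-flag signal; percent inhibition from DMSO and maximum-inhibition controls, IC50 by non-linear regression, triplicates.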

T1 sequence (Q9H7B4 whole entry): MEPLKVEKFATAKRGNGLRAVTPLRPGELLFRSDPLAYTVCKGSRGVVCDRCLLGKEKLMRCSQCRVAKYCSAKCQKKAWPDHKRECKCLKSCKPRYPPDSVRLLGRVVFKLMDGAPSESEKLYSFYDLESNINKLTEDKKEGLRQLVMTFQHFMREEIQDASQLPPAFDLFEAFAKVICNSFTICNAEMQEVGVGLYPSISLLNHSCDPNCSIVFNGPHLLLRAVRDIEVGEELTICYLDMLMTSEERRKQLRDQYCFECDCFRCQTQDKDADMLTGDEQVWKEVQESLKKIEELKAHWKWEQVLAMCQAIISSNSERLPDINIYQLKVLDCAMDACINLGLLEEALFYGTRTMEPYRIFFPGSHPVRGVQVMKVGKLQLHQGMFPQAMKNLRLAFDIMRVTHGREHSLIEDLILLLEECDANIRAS

As for `C[C@H]1CN(S(=O)(=O)CCCNCc2ccccc2)[C@@H](C)C[C@H]1NC(=O)c1cc(C2CC2)on1` [compound 628, N-((2S,4R,5S)-1-((3-(benzylamino)propyl)sulfonyl)-2,5-dimethylpiperidin-4-yl)-5-cyclopropylisoxazole-3-carboxamide], the values for the IC50 in assay [1] and in assay [2] were 27.3 nM and 577 nM, respectively.
With `C[C@@H]1CN(S(=O)(=O)CC2CCNCC2)[C@H](C)C[C@@H]1NC(=O)c1cc(C2CC2)on1` [compound 629, 5-cyclopropyl-N-((2R,4S,5R)-2,5-dimethyl-1-((piperidin-4-ylmethyl)sulfonyl)piperidin-4-yl)isoxazole-3-carboxamide], the IC50 in assay [1] is 28.2 nM; in assay [2] it was 407 nM.
As to `C[C@H]1C[C@@H](NC(=O)c2cc(C3CC3)on2)CCN1S(=O)(=O)CCCNCC1CC1` [compound 630, 5-cyclopropyl-N-((2S,4S)-1-((3-((cyclopropylmethyl)amino)propyl)sulfonyl)-2-methylpiperidin-4-yl)isoxazole-3-carboxamide], the IC50 is 29.4 nM in assay [1] and 396 nM in assay [2].
On the same counts, the results for `C[C@H]1C[C@@H](NC(=O)c2cc(C3CC3)on2)CCN1S(=O)(=O)N1CC2CCC1CN2C` (stereo partly drawn) [compound 631, 5-cyclopropyl-N-((2S,4S)-2-methyl-1-((5-methyl-2,5-diazabicyclo[2.2.2]octan-2-yl)sulfonyl)piperidin-4-yl)isoxazole-3-carboxamide] are 29.8 nM and 298 nM.
As for `C[C@H]1CN(S(=O)(=O)CC2CCNCC2)[C@@H](C)C[C@H]1NC(=O)c1cc(C2CC2)on1` [compound 632, 5-cyclopropyl-N-((2S,4R,5S)-2,5-dimethyl-1-((piperidin-4-ylmethyl)sulfonyl)piperidin-4-yl)isoxazole-3-carboxamide], the figures for the IC50 in assay [1] and in assay [2] were 30.4 nM and 229 nM, respectively.
Regarding `CC(C)NCCCS(=O)(=O)N1CC[C@H](NC(=O)c2cc(C3CC3)on2)C[C@@H]1C` [compound 633, 5-cyclopropyl-N-((2S,4S)-1-((3-(isopropylamino)propyl)sulfonyl)-2-methylpiperidin-4-yl)isoxazole-3-carboxamide], the half-inhibitory concentration (IC50) in assay [1] is 30.4 nM; in assay [2], 291 nM.
On the same counts, the results for `C[C@@H]1CN(S(=O)(=O)N2CC[C@H](NC(=O)c3cc(C4CC4)on3)C[C@@H]2C)CCN1` [compound 634, 5-cyclopropyl-N-((2S,4S)-2-methyl-1-(((R)-3-methylpiperazin-1-yl)sulfonyl)piperidin-4-yl)isoxazole-3-carboxamide] are 31.8 nM and 176 nM.
On the same counts, the results for `C[C@H]1C[C@@H](NC(=O)c2cc(C3CC3)on2)CCN1S(=O)(=O)CCCNCC(C)(C)C` [compound 635, 5-cyclopropyl-N-((2S,4S)-2-methyl-1-((3-(neopentylamino)propyl)sulfonyl)piperidin-4-yl)isoxazole-3-carboxamide] are 32.5 nM and 318 nM.
Turning to `CCC1CN(S(=O)(=O)N2[C@@H]3CC[C@H]2C[C@@H](NC(=O)c2cc(C4CC4)on2)C3)CCN1` (stereo partly drawn) [compound 636, 5-cyclopropyl-N-((1R,3r,5S)-8-((3-ethylpiperazin-1-yl)sulfonyl)-8-azabicyclo[3.2.1]octan-3-yl)isoxazole-3-carboxamide], the half-maximal inhibitory concentration (IC50) in assay [1] amounted to 33.2 nM; in assay [2] it was 365 nM.
In the same order, the values of `C[C@H]1CN(S(=O)(=O)N2CCNCC2)[C@@H](C)C[C@H]1NC(=O)c1cc(C2CC2)on1` [compound 637, 5-cyclopropyl-N-((2S,4R,5S)-2,5-dimethyl-1-(piperazin-1-ylsulfonyl)piperidin-4-yl)isoxazole-3-carboxamide] are 33.4 nM and 203 nM.
In the case of `C[C@H]1C[C@@H](NC(=O)c2cc(C3CC3)on2)CCN1S(=O)(=O)N1CCNC(C)(C)C1` [compound 638, 5-cyclopropyl-N-((2S,4S)-1-((3,3-dimethylpiperazin-1-yl)sulfonyl)-2-methylpiperidin-4-yl)isoxazole-3-carboxamide], the figures for the IC50 in assay [1] and in assay [2] were 33.7 nM and 254 nM, respectively.
Consider `C[C@H]1C[C@@H](NC(=O)c2cc(C3CC3)on2)CCN1S(=O)(=O)N1CCCN(C)CC1` [compound 639, 5-cyclopropyl-N-((2S,4S)-2-methyl-1-((4-methyl-1,4-diazepan-1-yl)sulfonyl)piperidin-4-yl)isoxazole-3-carboxamide], for which the results for the IC50 in assay [1] and in assay [2] were 34.8 nM and 258 nM, respectively.
On the same counts, the results for `CC(C)CNCCCS(=O)(=O)N1CC[C@H](NC(=O)c2cc(C3CC3)on2)C[C@@H]1C` [compound 640, 5-cyclopropyl-N-((2S,4S)-1-((3-(isobutylamino)propyl)sulfonyl)-2-methylpiperidin-4-yl)isoxazole-3-carboxamide] are 35.7 nM and 480 nM.
In the same order, the values of `CN1CCN(S(=O)(=O)N2[C@@H]3CC[C@H]2C[C@@H](NC(=O)c2cc(C4CC4)on2)C3)CC1` [compound 641, 5-cyclopropyl-N-((1R,3r,5S)-8-((4-methylpiperazin-1-yl)sulfonyl)-8-azabicyclo[3.2.1]octan-3-yl)isoxazole-3-carboxamide] are 36.3 nM and 188 nM.
With `C[C@@H]1CN(S(=O)(=O)CCCN)[C@H](C)C[C@@H]1NC(=O)c1cc(C2CC2)on1` [compound 642, N-((2R,4S,5R)-1-((3-aminopropyl)sulfonyl)-2,5-dimethylpiperidin-4-yl)-5-cyclopropylisoxazole-3-carboxamide], the IC50 worked out at 37.6 nM in assay [1] and 571 nM in assay [2].
On to `O=C(N[C@H]1C[C@H]2CC[C@@H](C1)N2S(=O)(=O)N1CCNC(CO)C1)c1cc(C2CC2)on1` (stereo partly drawn) [compound 643, 5-cyclopropyl-N-((1R,3r,5S)-8-((3-(hydroxymethyl)piperazin-1-yl)sulfonyl)-8-azabicyclo[3.2.1]octan-3-yl)isoxazole-3-carboxamide], for which the IC50 in assay [1] is 37.8 nM; in assay [2], 211 nM.
On to `C[C@@H]1C[C@H](NC(=O)c2cc(C3CC3)on2)CCN1C(=O)c1ccc(C2CCNCC2)cc1` [compound 644, 5-cyclopropyl-N-((2R,4R)-2-methyl-1-(4-(piperidin-4-yl)benzoyl)piperidin-4-yl)isoxazole-3-carboxamide], for which the values for the concentration for half-maximal inhibition (IC50) in assay [1] and in assay [2] were 41.3 nM and 303 nM, respectively.
Regarding `C[C@H]1C[C@@H](NC(=O)c2cc(C3CC3)on2)CCN1S(=O)(=O)CCCNC(c1ccccc1)c1ccccc1` [compound 645, N-((2S,4S)-1-((3-(benzhydrylamino)propyl)sulfonyl)-2-methylpiperidin-4-yl)-5-cyclopropylisoxazole-3-carboxamide], the half-inhibitory concentration (IC50) in assay [1] was 44.4 nM; in assay [2] it was 575 nM.
In the same order, the values of `C[C@H]1CN(S(=O)(=O)NC2CCNCC2)CC[C@H]1NC(=O)c1cc(C2CC2)on1` [compound 646, 5-cyclopropyl-N-((3S,4R)-3-methyl-1-(N-(piperidin-4-yl)sulfamoyl)piperidin-4-yl)isoxazole-3-carboxamide] are 45.2 nM and 755 nM.
In the same order, the values of `O=C(N[C@H]1CCN(S(=O)(=O)CC2CCNCC2)[C@@H](Cc2ccccc2)C1)c1cc(C2CC2)on1` [compound 647, N-((2S,4S)-2-benzyl-1-((piperidin-4-ylmethyl)sulfonyl)piperidin-4-yl)-5-cyclopropylisoxazole-3-carboxamide] are 45.5 nM and 809 nM.
Consider `COCCCN1CCC(CS(=O)(=O)N2CC[C@@H](NC(=O)c3cc(C4CC4)on3)[C@@H](C)C2)CC1` [compound 648, 5-cyclopropyl-N-((3S,4R)-1-(((1-(3-methoxypropyl)piperidin-4-yl)methyl)sulfonyl)-3-methylpiperidin-4-yl)isoxazole-3-carboxamide], for which the IC50 stood at 46.8 nM in assay [1] and 331 nM in assay [2].
In the case of `CNCCS(=O)(=O)N1[C@@H]2CC[C@H]1C[C@@H](NC(=O)c1cc(C3CC3)on1)C2` [compound 649, 5-cyclopropyl-N-((1R,3r,5S)-8-((2-(methylamino)ethyl)sulfonyl)-8-azabicyclo[3.2.1]octan-3-yl)isoxazole-3-carboxamide], the figures for the IC50 in assay [1] and in assay [2] were 47.2 nM and 261 nM, respectively.
On the same counts, the results for `C[C@H]1C[C@@H](NC(=O)c2cc(C3CC3)on2)CCN1S(=O)(=O)NCCN` [compound 650, N-((2S,4S)-1-(N-(2-aminoethyl)sulfamoyl)-2-methylpiperidin-4-yl)-5-cyclopropylisoxazole-3-carboxamide] are 49.1 nM and 4630 nM.
In the same order, the values of `CN(C)C1CCN(CCS(=O)(=O)N2[C@@H]3CC[C@H]2C[C@@H](NC(=O)c2cc(C4CC4)on2)C3)C1` (stereo partly drawn) [compound 651, 5-cyclopropyl-N-((1R,3r,5S)-8-((2-(3-(dimethylamino)pyrrolidin-1-yl)ethyl)sulfonyl)-8-azabicyclo[3.2.1]octan-3-yl)isoxazole-3-carboxamide] are 50.6 nM and 532 nM.
On the same counts, the results for `C[C@@H]1C[C@@H](NC(=O)c2cc(C3CC3)on2)CCN1S(=O)(=O)N1CCNCC1` [compound 652, 5-cyclopropyl-N-((2R,4S)-2-methyl-1-(piperazin-1-ylsulfonyl)piperidin-4-yl)isoxazole-3-carboxamide] are 51.1 nM and 339 nM.
Turning to `C[C@H]1CN(S(=O)(=O)N(C)C2CCNCC2)CC[C@H]1NC(=O)c1cc(C2CC2)on1` [compound 653, 5-cyclopropyl-N-((3S,4R)-3-methyl-1-(N-methyl-N-(piperidin-4-yl)sulfamoyl)piperidin-4-yl)isoxazole-3-carboxamide], the IC50 in assay [1] worked out at 55 nM; in assay [2], 328 nM.

The IC50 is the midpoint of a concentration-inhibition curve.
